What all share (format): in vivo
The test system of one assay is weeds and/or crops. The assay can be described thus: Post-emergence biological efficacy (Table 4). The note with it: evaluated after 13 days; for pest or weed control at 250 g/ha / pest or weed control at 1000 g/ha: 312 h. The procedure, abridged:
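Scores are visual damage (0 = none, 100 = total), read 13 days after treatment at 24/18 °C with 15 h light. Plants had been sown in standard soil and grown 14 days before a spray of compound in F50/acetone, diluted with 0.2% Genapol X080.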

The next assay concerns ZEAMX. Briefly: Pre-emergence biological efficacy (Table 3). The note with it: after 13 days. The procedure, abridged:
(§1)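 Seeds sown in standard soil and sprayed one day later with compound formulated in acetone/AMA solvent-emulsifier, diluted in 0.2% Genapol X080 to the final dose. Plants grown in glasshouse at 24/18° C, 15 h light, 50% humidity. Damage scored after 13 days (0=none, 100=total).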

The next assay has as its system ECHCG. Briefly: Pre-emergence biological efficacy (Table 3). The note with it: after 13 days. The method, boiled down: as §1
A further assay concerns AMAPA. Briefly: Pre-emergence biological efficacy (Table 3). The settings on record: 312 h, after 13 days, read-out: evaluation (100=total damage to plant; 0=no damage to plant). The method, boiled down: as §1
The test system of another assay is IPOHE. The assay can be described thus: Pre-emergence biological efficacy (Table 3). The note with it: after 13 days. The method, boiled down:
as §1

Assay [1] has as its system AMARE. The assay can be described thus: Pre-emergence biological efficacy (Table 3). The settings on record: after 13 days. The method, boiled down:
as §1

The next assay concerns SETFA. Briefly: Pre-emergence biological efficacy (Table 3). The settings on record: Setaria faberi, 312 h, after 13 days, read-out: evaluation (100=total damage to plant; 0=no damage to plant). The method, boiled down: as §1
Assay [2] has as its system STEME. Briefly: Biological efficacy, pre-emergence glasshouse test (Table 2). The settings on record: 1000 g/ha, after 12 days. The method, then: (§2) Seeds of a variety of test species were shown in unsterilised compost in small pots. After cultivation for one day (pre-emergence) or seven days (post-emergence) in controlled conditions in the glasshouse (at 24/16° C., day/night; 14 hours light; 65% humidity) the plants were sprayed with 1 mg of the active ingredient, formulated in 466 μl of a acetone/water/Tween 20 (49.75:49.75:0.5) solution, which is equivalent to 1000 g/ha. Once the foliage was dry, the pots were kept in the glasshouse (at 24/16° C., day/night; 14 hours light; 65% humidity), and were watered twice daily. After 12 days the test was evaluated and scored (100=total damage to plant, 0=no damage to plant).

Assay [3] deals with AMARE. Described as above. The settings on record: 1000 g/ha, after 12 days. As for the experimental part:
as §2

Assay [4] deals with DIGSA. Described as above. The settings on record: 1000 g/ha, after 12 days. As for the experimental part: as §2
For assay [5], the system named is LOLPE. Described as above. The note with it: 1000 g/ha, after 12 days. As for the experimental part: as §2
For assay [6], the system named is STEME. Briefly: Biological efficacy, post-emergence glasshouse test (Table 2). The note with it: 1000 g/ha, after 12 days. The method, then:
as §2

In assay [7] the test system is AMARE. The assay is described as above. The settings on record: 1000 g/ha, after 12 days. The method, then:
as §2

The test system of assay [8] is DIGSA. Described as above. The note with it: 1000 g/ha, after 12 days. The method, then: as §2
For assay [9], the system named is LOLPE. Described as above. The note with it: 1000 g/ha, after 12 days. As for the experimental part:
as §2

Assay [10] concerns STEME. The assay can be described thus: Pre-emergence biological efficacy (Table 3). The settings on record: 1000 g/ha, after 13 days. The procedure, abridged: as §1
For another assay, the system named is ABUTH. The assay can be described thus: Pre-emergence biological efficacy (Table 3). The note with it: 1000 g/ha, after 13 days. The procedure, abridged:
as §1

Where [11] appears, read: AMAPA, 1000 g/ha, read-out: damage to plant AMAPA (100=total damage; 0=no damage).
The mark [12] stands for this setting: ZEAMX, 1000 g/ha, read-out: damage to plant ZEAMX (100=total damage; 0=no damage).
Where [13] appears, read: Amaranthus retroflexus, AMARE, 1000 g/ha, read-out: damage to plant AMARE (100=total damage; 0=no damage).
The mark [14] stands for this setting: Echinochloa crus-galli, ECHCG, 1000 g/ha, read-out: damage to plant ECHCG (100=total damage; 0=no damage).
[15] abbreviates: Ipomoea hederacea, IPOHE, 1000 g/ha, read-out: damage to plant IPOHE (100=total damage; 0=no damage).
The mark [16] stands for this setting: Setaria faberi, SETFA, 1000 g/ha, read-out: damage to plant SETFA (100=total damage; 0=no damage).
Setting [17] is: 312 h, 1000 g/ha, read-out: evaluation (100=total damage to plant; 0=no damage to plant).
Where [18] appears, read: Echinochloa crus-galli, 312 h, 1000 g/ha, read-out: evaluation (100=total damage to plant; 0=no damage to plant).
Where [19] appears, read: Ipomoea hederacea, 312 h, 1000 g/ha, read-out: evaluation (100=total damage to plant; 0=no damage to plant).
Where [20] appears, read: Amaranthus retroflexus, 312 h, 1000 g/ha, read-out: evaluation (100=total damage to plant; 0=no damage to plant).

Like-named read-outs stand apart in the source and are kept apart here.

Turning to `O=C(O)C(F)(F)c1ccc(OC(F)(F)F)cc1Cl` [Compound 1-59, 2-[2-Chloro-4-(trifluoromethoxy)phenyl]-2,2-difluoro-acetic acid], the pest or weed control at 250 g/ha in the assay with weeds and/or crops (AMAPA, read-out: damage to plant AMAPA (100=total damage; 0=no damage)) amounted to 60%; in the assay on weeds and/or crops (ZEAMX, read-out: damage to plant ZEAMX (100=total damage; 0=no damage)), 0%; in the assay with weeds and/or crops (Amaranthus retroflexus, AMARE, read-out: damage to plant AMARE (100=total damage; 0=no damage)), 60%; with weeds and/or crops (Echinochloa crus-galli, ECHCG, read-out: damage to plant ECHCG (100=total damage; 0=no damage)) it was 0%; in the assay with weeds and/or crops (Ipomoea hederacea, IPOHE, read-out: damage to plant IPOHE (100=total damage; 0=no damage)) it was 40%; in the assay with weeds and/or crops (Setaria faberi, SETFA, read-out: damage to plant SETFA (100=total damage; 0=no damage)), 10%. Also, the pest or weed control at 250 g/ha with ECHCG (Echinochloa crus-galli, 312 h, 250 g/ha, read-out: evaluation (100=total damage to plant; 0=no damage to plant)) turned out to be 0%; in the assay with AMAPA (250 g/ha) it was 20%; in the assay with IPOHE (Ipomoea hederacea, 312 h, 250 g/ha, read-out: evaluation (100=total damage to plant; 0=no damage to plant)), 10%; in the assay on AMARE [1] (Amaranthus retroflexus, 312 h, 250 g/ha, read-out: evaluation (100=total damage to plant; 0=no damage to plant)), 20%; in the assay with SETFA (250 g/ha) it was 10%. For the same molecule, the plant injury at 250 g/ha in the assay with ZEAMX (312 h, 250 g/ha, read-out: evaluation (100=total damage to plant; 0=no damage to plant)) is 0%.

Regarding `COc1cccc(C(F)(F)C(=O)O)c1F` [Compound 1-190, 2,2-Difluoro-2-(2-fluoro-3-methoxy-phenyl)acetic acid], the pest or weed control at 1000 g/ha in the assay on weeds and/or crops (setting [11]) came out at 80%; in the assay with weeds and/or crops (setting [12]), 10%; in the assay on weeds and/or crops (setting [13]), 90%; with weeds and/or crops (setting [14]) it was 40%; in the assay with weeds and/or crops (setting [15]), 60%; in the assay on weeds and/or crops (setting [16]), 20%. The pest or weed control at 1000 g/ha amounted to 0% in the assay on ECHCG (setting [18]); 80% with AMAPA; 90% in the assay with IPOHE (setting [19]); 80% in the assay on AMARE [1] (setting [20]); 20% with SETFA. Besides, in the assay on ZEAMX (setting [17]), the plant injury at 1000 g/ha came to 0%.

As for `N#Cc1cccc(C(F)(F)C(=O)O)c1F` [Compound 1-192, 2-(3-Cyano-2-fluoro-phenyl)-2,2-difluoro-acetic acid], the pest or weed control at 1000 g/ha in the assay on weeds and/or crops (setting [11]) turned out to be 80%; with weeds and/or crops (setting [12]) it was 20%; in the assay on weeds and/or crops (setting [13]) it was 80%; in the assay on weeds and/or crops (setting [14]) it was 30%; in the assay on weeds and/or crops (setting [15]), 70%; in the assay on weeds and/or crops (setting [16]), 60%. For the same molecule, the pest or weed control at 1000 g/ha was 0% with ECHCG (setting [18]); 70% in the assay with AMAPA; 70% in the assay with IPOHE (setting [19]); 80% in the assay with AMARE [1] (setting [20]); 50% with SETFA. Also, the plant injury at 1000 g/ha in the assay with ZEAMX (setting [17]) turned out to be 0%.

Consider `COc1cccc(C(F)(F)C(=O)O)c1C` [Compound 1-242, 2,2-Difluoro-2-(3-methoxy-2-methyl-phenyl)acetic acid], for which the pest or weed control at 1000 g/ha was determined as 80% in the assay with weeds and/or crops (setting [11]); 10% in the assay with weeds and/or crops (setting [12]); 80% in the assay on weeds and/or crops (setting [13]); 10% in the assay on weeds and/or crops (setting [14]); 70% in the assay on weeds and/or crops (setting [15]); 10% with weeds and/or crops (setting [16]). In addition, the pest or weed control at 1000 g/ha in the assay on ECHCG (setting [18]) was 0%; in the assay on AMAPA, 70%; in the assay with IPOHE (setting [19]), 60%; with AMARE [1] (setting [20]), 70%; with SETFA, 10%. The plant injury at 1000 g/ha with ZEAMX (setting [17]) amounted to 10%.

As for `Cc1c(C#N)cccc1C(F)(F)C(=O)O` [Compound 1-244, 2-(3-Cyano-2-methyl-phenyl)-2,2-difluoro-acetic acid], the pest or weed control at 1000 g/ha in the assay with weeds and/or crops (setting [11]) turned out to be 90%; with weeds and/or crops (setting [12]), 60%; in the assay on weeds and/or crops (setting [13]) it was 90%; in the assay with weeds and/or crops (setting [14]), 60%; with weeds and/or crops (setting [15]), 70%; with weeds and/or crops (setting [16]), 70%. Further, the pest or weed control at 1000 g/ha was 50% with ECHCG (setting [18]); 80% in the assay with AMAPA; 90% in the assay on IPOHE (setting [19]); 90% in the assay with AMARE [1] (setting [20]); 90% in the assay with SETFA. Also, the plant injury at 1000 g/ha in the assay on ZEAMX (setting [17]) was 40%.

In the case of `COCc1c(Cl)cccc1C(F)(F)C(=O)O` [Compound 1-436, 2-[3-Chloro-2-(methoxymethyl)phenyl]-2,2-difluoro-acetic acid], in the assay on ZEAMX (setting [17]), the plant injury at 1000 g/ha was 0%. The pest or weed control at 1000 g/ha with ECHCG (setting [18]) worked out at 0%; in the assay on AMAPA it was 40%; in the assay with IPOHE (setting [19]) it was 40%; in the assay with AMARE [1] (setting [20]), 30%; in the assay with SETFA it was 20%.

With `N.N#Cc1cccc(C(F)(F)C(=O)O)c1Cl` [Compound 7-231, Ammonium;2-(2-chloro-3-cyano-phenyl)-2,2-difluoro-acetate], the “score (100=total damage to plant, 0=no damage to plant)” value is on record as 100 in the assay on STEME [2]; 90 in the assay with AMARE [3]; 80 in the assay on DIGSA [4]; 40 with LOLPE [5]; 80 with STEME [6]; 90 in the assay on AMARE [7]. Also, the “score (100=total damage to plant, 0=no damage to plant)” value in the assay on DIGSA [8] is 70; with LOLPE [9], 0. For the same molecule, in the assay on weeds and/or crops (ABUTH, 1000 g/ha), the “damage to plant ABUTH (100=total damage; 0=no damage)” value amounted to 90. The “damage to plant AMARE (100=total damage; 0=no damage)” value in the assay with weeds and/or crops (AMARE, 1000 g/ha) stood at 90. For the same molecule, the “damage to plant ECHCG (100=total damage; 0=no damage)” value with weeds and/or crops (ECHCG, 1000 g/ha) was determined as 10. Besides, the “damage to plant IPOHE (100=total damage; 0=no damage)” value in the assay on weeds and/or crops (IPOHE, 1000 g/ha) was 80. The “damage to plant STEME (100=total damage; 0=no damage)” value with weeds and/or crops (STEME, 1000 g/ha) is 100. In addition, in the assay on weeds and/or crops (ZEAMX, 1000 g/ha), the “damage to plant ZEAMX (100=total damage; 0=no damage)” value is 30. Also, the “evaluation (100=total damage to plant; 0=no damage to plant)” value in the assay on ZEAMX (1000 g/ha) was 50; in the assay with ECHCG (1000 g/ha) it was 10; in the assay on IPOHE (1000 g/ha) it was 80; in the assay with STEME [10], 100; in the assay on AMARE [1] (1000 g/ha), 90; in the assay on ABUTH, 90.

The record behind these values is patent publication US20240251792A1, “WEED CONTROL METHOD” (SYNGENTA CROP PROTECTION AG, priority 2021, published 2024).
